# Where a SMILES comes first, the peptide text is derived from it. Bridges are numbered along the chain shown (N, C = ends). Roman numbers before positions name the chains, in order. Where no end group is shown, it is not given here.
# Tested on: C. albicans strains
# Experiment: Broth dilution assay (MIC), C. albicans strains
# Type: cell-based, Candida albicans
# Settings: for decrease of killing activities in 150 mM salt: 150 mM NaCl versus no salt, C. albicans strains; for killing activities against C. albicans strains in 150 mM salt: 150 mM NaCl
# Description: To determine the candidacidal activity of the peptides, we used Candida strains obtained from the Culture collection of antimicrobial resistant microbes at Seoul Women’s University in Korea. These included three Candida albicans (CCARM 14020, 14021, 14022), Candida guillermondi and Candida tropicalis. In addition, Candida albicans SC5413 was kindly provided by Dr Jeong-Yoon Kim at the Department of Microbiology & Molecular Biology, Chungnam University, Korea. Yeast were cultured overnight at 30°C in 10 ml of yeast extract-peptone-dextrose (YPD) broth (Qbiogene), then diluted in 10 ml of YPD broth to OD600 = 0.2 and grown for an additional 4 h with shaking at 30°C until OD600 = 0.8 in order to obtain mid-log phase cultures. The peptides (Hst 5, P113, HHP1, HHP2, PH1, PH2, di-PH1, di-PH2, WP1, di-WP2, di-15Hc and di-18Hc) in this study were synthesized by using standard solid-phase synthesis protocols and were purified by reversed-phase high-performance liquid chromatography at Anygen Inc. (Korea). FITC-labeled peptides (F-Hst5, F-P113, F-HHP1, F-di-PH2, F-di-WP2 and F-di-18Hc) were also synthesized by 6-aminohexnoic acid linker at Anygen (Korea) for confocal experiments.
# The candidacidal activities of the peptides were tested by using standard microdilution plate assays, radial diffusion assays and broth dilution assay slightly modified from the procedure recommended by the National Committee for Clinical Laboratory Standards. For the candidacidal assays, C. albicans cells were grown in YPD medium and washed twice with 10 mM sodium phosphate buffer (NaPB; Na2HPO4, NaH2PO4, pH 7.4). The cells (1 x 10^6) were then mixed with different concentrations of peptides and incubated at 30°C with constant shaking for 60 min. For energy depletion experiments, cells were pre-incubated with 10 mM NaPB containing 5 mM NaN3 at 30°C for 60 min before the addition of peptides. The cell suspensions were diluted in 10 mM NaPB and aliquots of 500 cells were spread onto YPD agar plates then incubated for 24 h at 30°C to visualize the surviving colonies. Cell survival was expressed as a percentage of that for the control, and the loss of viability was calculated as [1 x (number of colonies from peptide-treated cells/number of colonies from control cells)] x 100. Candidacidal assays were performed in triplicate. For the radial diffusion assay, C. albicans cells were grown in YPD medium overnight and washed twice with 10 mM NaPB. Washed yeast-phase C. albicans cells (1 x 10^6 CFU) were trapped in thin underlay gels containing 9 mM sodium phosphate, 1 mM sodium citrate buffer, 1% (wt/vol) agarose (A6013; Sigma), and 0.3 mg of Sabouraud dextrose broth (Difco)/ml. After incubation at 37°C for 3 h, a 10 ml overlay gel of 1% agarose and 6% Sabouraud dextrose broth was poured on the underlay gel and then the plates were incubated overnight at 37°C. The clear-zone diameters were measured to the nearest 0.1 mm and graphed against the peptide concentration. Zone diameters were expressed in units (0.1 mm = 1 unit). For the broth dilution assay, the Candida strains were cultured in LYM broth for 18 h at 30°C. The numbers of yeasts were counted using a hemocytometer. Stock peptide solutions were prepared to a concentration of 320 μg/ml in distilled water, and were then serially diluted twofold, to 5 μg/ml. […] The antifungal activities were evaluated after 24 h of incubation at 30°C by the observation of visible turbidity the wells. […]
Compound,decrease of killing activities in 150 mM salt,killing activities against C. albicans strains in 150 mM salt
CC(C)C[C@H](NC(=O)[C@@H](N)Cc1c[nH]c2ccccc12)C(=O)N[C@@H](CC(N)=O)C(=O)N[C@@H](C)C(=O)N[C@@H](CCCCN)C(=O)N[C@@H](CCCNC(=N)N)C(=O)N[C@@H](Cc1c[nH]cn1)C(=O)N[C@@H](Cc1c[nH]cn1)C(=O)NCC(=O)N[C@@H](Cc1ccc(O)cc1)C(=O)N[C@@H](CCCCN)C(=O)N[C@@H](CSSC[C@H](NC(=O)[C@H](CCCCN)NC(=O)[C@H](Cc1ccc(O)cc1)NC(=O)CNC(=O)[C@H](Cc1c[nH]cn1)NC(=O)[C@H](Cc1c[nH]cn1)NC(=O)[C@H](CCCNC(=N)N)NC(=O)[C@H](CCCCN)NC(=O)[C@H](C)NC(=O)[C@H](CC(N)=O)NC(=O)[C@H](CC(C)C)NC(=O)[C@@H](N)Cc1c[nH]c2ccccc12)C(=O)N[C@@H](CCCCN)C(=O)N[C@@H](Cc1ccccc1)C(=O)N[C@@H](Cc1c[nH]cn1)C(N)=O)C(=O)N[C@@H](CCCCN)C(=O)N[C@@H](Cc1ccccc1)C(=O)N[C@@H](Cc1c[nH]cn1)C(N)=O [di-WP2] (I: H-WLNAKRHHGYKCKFH-NH2 / II: H-WLNAKRHHGYKCKFH-NH2; disulfide I:12-II:12 (inferred); N-terminus assumed),4-8 fold,–
AKRHHGYKRKFH-NH2 [P113],–,abolished
"CC(C)C[C@H](NC(=O)CNC(=O)[C@H](Cc1c[nH]cn1)NC(=O)[C@H](Cc1c[nH]cn1)NC(=O)[C@H](CC(C)C)NC(=O)[C@H](CC(C)C)NC(=O)[C@H](C)NC(=O)[C@H](CC(N)=O)NC(=O)[C@H](CC(C)C)NC(=O)[C@@H](N)Cc1c[nH]c2ccccc12)C(=O)N[C@@H](CC(N)=O)C(=O)N[C@@H](CSSC[C@H](NC(=O)[C@H](CC(N)=O)NC(=O)[C@H](CC(C)C)NC(=O)CNC(=O)[C@H](Cc1c[nH]cn1)NC(=O)[C@H](Cc1c[nH]cn1)NC(=O)[C@H](CC(C)C)NC(=O)[C@H](CC(C)C)NC(=O)[C@H](C)NC(=O)[C@H](CC(N)=O)NC(=O)[C@H](CC(C)C)NC(=O)[C@@H](N)Cc1c[nH]c2ccccc12)C(=O)N[C@@H](C)C(=O)N[C@@H](CCCCN)C(=O)NCC(=O)N[C@H](C(=O)N[C@@H](CC(C)C)C(=O)N[C@@H](C)C(N)=O)C(C)C)C(=O)N[C@@H](C)C(=O)N[C@@H](CCCCN)C(=O)NCC(=O)N[C@H](C(=O)N[C@@H](CC(C)C)C(=O)N[C@@H](C)C(N)=O)C(C)C [di-18Hc, reference compound] (I: H-WLNALLHHGLNCAKGVLA-NH2 / II: H-WLNALLHHGLNCAKGVLA-NH2; disulfide I:12-II:12 (inferred); N-terminus assumed)",4-8 fold,–
"C[C@H](NC(=O)[C@H](Cc1c[nH]cn1)NC(=O)[C@H](CO)NC(=O)[C@@H](N)CC(=O)O)C(=O)N[C@@H](CCCCN)C(=O)N[C@@H](CCCNC(=N)N)C(=O)N[C@@H](Cc1c[nH]cn1)C(=O)N[C@@H](Cc1c[nH]cn1)C(=O)NCC(=O)N[C@@H](Cc1ccc(O)cc1)C(=O)N[C@@H](CCCCN)C(=O)N[C@@H](CCCNC(=N)N)C(=O)N[C@@H](CCCCN)C(=O)N[C@@H](Cc1ccccc1)C(=O)N[C@@H](Cc1c[nH]cn1)C(=O)N[C@@H](CCC(=O)O)C(=O)N[C@@H](CCCCN)C(=O)N[C@@H](Cc1c[nH]cn1)C(=O)N[C@@H](Cc1c[nH]cn1)C(=O)N[C@@H](CO)C(=O)N[C@@H](Cc1c[nH]cn1)C(=O)N[C@@H](CCCNC(=N)N)C(=O)NCC(=O)N[C@@H](Cc1ccc(O)cc1)C(=O)O [Hst 5, Histatin 5]",–,abolished
CC(C)C[C@H](NC(=O)CNC(=O)[C@H](Cc1c[nH]cn1)NC(=O)[C@H](Cc1c[nH]cn1)NC(=O)[C@H](CCCNC(=N)N)NC(=O)[C@H](CCCCN)NC(=O)[C@H](C)N)C(=O)N[C@@H](CC(N)=O)C(=O)N[C@@H](CSSC[C@H](NC(=O)[C@H](CC(N)=O)NC(=O)[C@H](CC(C)C)NC(=O)CNC(=O)[C@H](Cc1c[nH]cn1)NC(=O)[C@H](Cc1c[nH]cn1)NC(=O)[C@H](CCCNC(=N)N)NC(=O)[C@H](CCCCN)NC(=O)[C@H](C)N)C(=O)N[C@@H](C)C(=O)N[C@@H](CCCCN)C(=O)N[C@@H](Cc1ccccc1)C(=O)N[C@@H](Cc1c[nH]cn1)C(N)=O)C(=O)N[C@@H](C)C(=O)N[C@@H](CCCCN)C(=O)N[C@@H](Cc1ccccc1)C(=O)N[C@@H](Cc1c[nH]cn1)C(N)=O [di-PH2] (I: H-AKRHHGLNCAKFH-NH2 / II: H-AKRHHGLNCAKFH-NH2; disulfide I:9-II:9 (inferred); N-terminus assumed),–,abolished

# From PMC4769088, “Antifungal Activity and Action Mechanism of Histatin 5-Halocidin Hybrid Peptides against Candida ssp” (PLoS ONE, 2016)
